Values of other authors in patent US20160303051A1, “Burst Drug Release Compositions” (Wyeth LLC, priority 2009, published 2016).

solubility (BCS): low solubility
SMILES: CC(C)Cc1ccc(C(C)C(=O)O)cc1 (stereo not shown) [Ibuprofen, ibuprofen]
